Test results published in patent US20100331363A1, “TREATMENT OF MITOCHONDRIAL DISORDERS USING A FARNESYL TRANSFERASE INHIBITOR” (Link Medicine Corporation, priority 2008, published 2010).
“Also recorded” adds a separate entry of the source.

Key:
Aβ = experiment: h-APPs1 transgenic mouse, Aβ levels; format: in vivo; settings: 0.9 mg/kg once every 24 hr, three months
Excerpt: Finally, it is important to note that LNK-754-TS had no effect on APP processing and secretion in a cell culture model of pathogenic Aβ production (Selkoe, D. J., et al. Ann N Y Acad Sci 777, 57-64 (1996)).

TAU441 transgenic mice = experiment: Porsolt forced swim task in TAU441 transgenic mice; format: in vivo, mouse; settings: 0.09 mg/kg daily for 90 days
Excerpt: Tests relevant to depression-like behaviors in rodents are primarily stress-induced reductions in avoidance or escape, termed behavioral despair. One of the most widely used animal tests for depression is the Porsolt forced swim task (Porsolt et al., Arch. Int. Pharmacodyn. Ther. 229(2):327-36, 1977; Porsolt et al., Eur. J. Pharmacol. 47(4):379-91, 1978). This study was designed to evaluate the effects of treatment with LNK-754 on behavior of TAU441 transgenic mice. At start of the treatment, the animals were 5 months old. Untreated non-transgenic animals of the same age were tested and sacrificed serving as the baseline group. Mice received vehicle or LNK-754-TS at a dose of 0.09 mg per kg, 7 days a week for 90 days. In the last week of the treatment period and before sacrifice, mice were evaluated using the Porsolt forced swim task (FIG. 10B).

SMILES: C#Cc1cccc(-c2cc(=O)n(C)c3ccc([C@](O)(c4ccc(Cl)cc4)c4cncn4C)cc23)c1 [LNK-754-TS, (R)-6-[(4-chlorophenyl)-hydroxyl-(1-methyl-1-H-imidazol-5-yl)-methyl]-4-(3-ethynylphenyl)-1-methyl-2-(1H)-quinonlinone (2S, 3S)-dihydroxybutanedioate]
- amounts of more soluble Aβ42 species (Aβ): small reduction
- cortical Aβ immunoreactivity and Aβ in insoluble fractions (Aβ): did not significantly reduce
- behavior compared with non-transgenic mice, forced swim task (TAU441 transgenic mice): behaved similar to non-transgenic mice; also recorded: behaved similarly to non-tg mice
- floating, forced swim task (TAU441 transgenic mice; vs vehicle): significantly less floating; also recorded: decreasing floating behavior
- struggling behavior, forced swim task (TAU441 transgenic mice; vs vehicle): higher percentage of struggling behavior; also recorded: increasing struggling behavior
